Some test systems named below: HCT-116; MDA-MB-435; SNB-75; T47D; HOP-92; NCI-H23; NCI/ADR-RES; RPMI-8226; LOX IMVI; MCF7; UACC-257; SK-MEL-2; HCC 2998; NCI-H522; HL-60; EKVX; NCI-H460; COLO 205; PC-3.
What all share (test): NCI tumour cell line growth inhibition, 48 h

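Five concentrations, 48 hours, 96-well plates. GI50: concentration for 50% inhibition of growth.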 Activity calls are given as the source filed them. Cut-off read from the data, not from the text of the source: active = GI50 up to about 1.1 µM and inactive = higher. Non-standard residues stand in square brackets, D forms with d. Residues, ends and D or L forms follow the SMILES beside them. ξ: configuration not given here. *: point of attachment. NMeY = CN[C@@H](Cc1ccc(O)cc1)C(=O)O; Cbz = O=C(OCc1ccccc1)*; ξA = CC(N)C(=O)O

Take `OCCSCc1ccccc1`: the GI50 in the experiment on HCT-116, in the experiment with MDA-MB-435, in the experiment on SNB-75, with T47D, in the experiment on HOP-92 and in the experiment on NCI-H23 was > 100 µM (inactive) each time. The GI50 in the experiment on NCI/ADR-RES, in the experiment with RPMI-8226, in the experiment with LOX IMVI, in the experiment with MCF7, with UACC-257 and in the experiment with SK-MEL-2 was > 100 µM (inactive) in each case. The GI50 with HCC 2998, with NCI-H522, in the experiment on HL-60, with EKVX, in the experiment with NCI-H460 and with COLO 205 was > 100 µM (inactive) throughout. In the experiment on PC-3, the GI50 is > 100 µM (inactive).
In the case of `CC(=O)Oc1ccc2c(c1)c1c(=O)oc(N(C)C)nc1n2Cc1ccccc1`, the GI50 in the experiment with HCT-116 was 39.9 µM (inactive); with MDA-MB-435, 46.2 µM (inactive); in the experiment on SNB-75, > 60.3 µM (inactive); with T47D it was 29.7 µM (inactive); with HOP-92, 19.5 µM (inactive); in the experiment with NCI-H23, 97.5 µM (inactive). Moreover, the GI50 in the experiment on NCI/ADR-RES was 34.8 µM (inactive); with RPMI-8226, > 65 µM (inactive); with LOX IMVI it was 49.7 µM (inactive); with MCF7, 25.2 µM (inactive); in the experiment on UACC-257, > 86.5 µM (inactive); in the experiment on SK-MEL-2 it was > 76.6 µM (inactive). Moreover, the GI50 was > 100 µM (inactive) in the experiment on HCC 2998; 12.8 µM (inactive) in the experiment with NCI-H522; 23.6 µM (inactive) in the experiment on HL-60; > 100 µM (inactive) with EKVX; 52.2 µM (inactive) with NCI-H460; > 56.4 µM (inactive) with COLO 205. Moreover, in the experiment with PC-3, the GI50 was > 61.4 µM (inactive).
On to `C/C(CC(O)(C(F)(F)F)C(F)(F)F)=N\NC(N)=S`, for which the GI50 with HCT-116, in the experiment with MDA-MB-435, with SNB-75, in the experiment with T47D, in the experiment on HOP-92 and in the experiment with NCI-H23 was > 10 µM (inactive) throughout. The GI50 with NCI/ADR-RES, in the experiment on RPMI-8226, with LOX IMVI, in the experiment with MCF7, with UACC-257 and in the experiment on SK-MEL-2 was > 10 µM (inactive) each time. Also, the GI50 in the experiment on HCC 2998, with NCI-H522, in the experiment on HL-60, in the experiment with EKVX, in the experiment on NCI-H460 and in the experiment with COLO 205 was > 10 µM (inactive) throughout. Further, the GI50 with PC-3 was > 10 µM (inactive).
`COCOC1/C=C/CCCCC(=O)C(C)C#CC1` (stereo not given): the GI50 in the experiment with HCT-116 was 1.86 µM (inactive); in the experiment with MDA-MB-435 it was 5.52 µM (inactive); with SNB-75, 12.9 µM (inactive); in the experiment with T47D, 2.76 µM (inactive); in the experiment with HOP-92 it was 3.1 µM (inactive); with NCI-H23 it was 4.63 µM (inactive). Also, the GI50 in the experiment with NCI/ADR-RES was 4.18 µM (inactive); with RPMI-8226 it was 1.46 µM (inactive); in the experiment with LOX IMVI it was 2.19 µM (inactive); in the experiment with MCF7, 3.89 µM (inactive); in the experiment on UACC-257, 5.65 µM (inactive); with SK-MEL-2, 5.81 µM (inactive). Moreover, the GI50 with HCC 2998 was 7.89 µM (inactive); with NCI-H522, 1.53 µM (inactive); in the experiment with HL-60 it was 1.71 µM (inactive); with EKVX, 9.86 µM (inactive); in the experiment on NCI-H460 it was 7.13 µM (inactive); in the experiment with COLO 205, 2.51 µM (inactive). The GI50 in the experiment on PC-3 was 11.4 µM (inactive).
As for `CCOC(=O)NC(OCCN(C)C)(C(F)(F)F)C(F)(F)F`, the GI50 in the experiment with HCT-116, with MDA-MB-435, in the experiment with SNB-75, in the experiment with T47D, in the experiment with HOP-92 and in the experiment with NCI-H23 was > 100 µM (inactive) in each case. Further, the GI50 in the experiment on NCI/ADR-RES, in the experiment on RPMI-8226, with LOX IMVI, in the experiment with MCF7, in the experiment with UACC-257 and in the experiment with SK-MEL-2 was > 100 µM (inactive) throughout. In addition, the GI50 in the experiment with HCC 2998, with NCI-H522, in the experiment on HL-60, with EKVX, with NCI-H460 and with COLO 205 was > 100 µM (inactive) in each case. In the experiment with PC-3, the GI50 is > 100 µM (inactive).
Turning to `CCCCCCCCCCCCCCCCCCNc1ccn(C2OC(CO)C(OP(=O)(O)OCC(COP(=O)(O)OCC3OC(n4cc(F)c(NCCCCCCCCCCCCCCCCCC)nc4=O)CC3O)OC(=O)CCCCCCCCCCCCCCC)C2O)c(=O)n1` (stereo not given), the GI50 in the experiment with HCT-116, with MDA-MB-435, in the experiment on SNB-75, in the experiment on T47D, in the experiment on HOP-92 and in the experiment on NCI-H23 was > 100 µM (inactive) throughout. The GI50 in the experiment with NCI/ADR-RES, in the experiment with RPMI-8226, in the experiment on LOX IMVI, in the experiment on MCF7, in the experiment on UACC-257 and with SK-MEL-2 was > 100 µM (inactive) throughout. For the same compound, the GI50 was > 100 µM (inactive) in the experiment with HCC 2998; > 100 µM (inactive) in the experiment with NCI-H522; 67.1 µM (inactive) in the experiment on HL-60; > 100 µM (inactive) in the experiment on EKVX; > 100 µM (inactive) in the experiment on NCI-H460; > 100 µM (inactive) with COLO 205. Also, the GI50 with PC-3 was > 100 µM (inactive).
Consider `CC(=O)C(=Cc1ccc(C=C(C(C)=O)C(C)=O)cc1)C(C)=O`, for which the GI50 with HCT-116 is 0.637 µM (active); in the experiment with MDA-MB-435 it was 1.63 µM (inactive); in the experiment with SNB-75, 1.78 µM (inactive); with T47D, 3.05 µM (inactive); with HOP-92, 2.12 µM (inactive); with NCI-H23, 1.93 µM (inactive). Moreover, the GI50 in the experiment with NCI/ADR-RES was 2.28 µM (inactive); in the experiment with RPMI-8226, 0.282 µM (active); in the experiment on LOX IMVI, 0.57 µM (active); in the experiment with MCF7, 1.87 µM (inactive); with UACC-257, 1.92 µM (inactive); with SK-MEL-2, 2.39 µM (inactive). The GI50 was 4.81 µM (inactive) in the experiment with HCC 2998; 1.37 µM (inactive) with NCI-H522; 0.31 µM (active) with HL-60; 5.31 µM (inactive) in the experiment on EKVX; 2.59 µM (inactive) in the experiment on NCI-H460; 1.7 µM (inactive) in the experiment with COLO 205. The GI50 with PC-3 is 1.9 µM (inactive).
For `C=C(C(=O)O[C@H]1C(=O)C2=C(C)CCC3C(=C)C(=O)O[C@@H]3C2[C@]1(C)O)C1CC[C@]2(C)CCCC(=C)[C@H]2C1` (stereo not given in full), the GI50 in the experiment on HCT-116 was 3.28 µM (inactive); with MDA-MB-435 it was 3.35 µM (inactive); in the experiment on SNB-75 it was 0.327 µM (active); in the experiment on T47D, 4.25 µM (inactive); with HOP-92, 5.08 µM (inactive); in the experiment on NCI-H23, 7.35 µM (inactive). For the same compound, the GI50 in the experiment on NCI/ADR-RES was 7.38 µM (inactive); in the experiment on RPMI-8226, 3.46 µM (inactive); in the experiment on LOX IMVI, 3.18 µM (inactive); in the experiment on MCF7 it was 3.32 µM (inactive); in the experiment on UACC-257, 4.25 µM (inactive); with SK-MEL-2 it was 8.45 µM (inactive). For the same compound, the GI50 with HCC 2998 is 1.91 µM (inactive); with NCI-H522, 3.53 µM (inactive); in the experiment on HL-60, 2 µM (inactive); in the experiment on EKVX, 7.98 µM (inactive); with NCI-H460 it was 3.16 µM (inactive); with COLO 205, 8.77 µM (inactive). In addition, the GI50 in the experiment with PC-3 was 5.45 µM (inactive).
Take `Cc1csc2c(P(=O)(OC(C)C)OC(C)C)c(-c3ccccc3)cn12`: the GI50 in the experiment on HCT-116 was 14.2 µM (inactive); in the experiment with MDA-MB-435, 21.5 µM (inactive); with SNB-75 it was 14.5 µM (inactive); with T47D, 3.84 µM (inactive); with HOP-92, 16.7 µM (inactive); with NCI-H23, 19.1 µM (inactive). Further, the GI50 with NCI/ADR-RES is 18 µM (inactive); in the experiment with RPMI-8226 it was 16.3 µM (inactive); in the experiment on LOX IMVI, 13.6 µM (inactive); in the experiment with MCF7, 17.7 µM (inactive); in the experiment on UACC-257, 14 µM (inactive); in the experiment with SK-MEL-2, 16 µM (inactive). Further, the GI50 is 14.6 µM (inactive) in the experiment with HCC 2998; 15.3 µM (inactive) in the experiment on NCI-H522; 19 µM (inactive) in the experiment with HL-60; 17.2 µM (inactive) in the experiment on EKVX; 16.5 µM (inactive) in the experiment on NCI-H460; 18.7 µM (inactive) in the experiment on COLO 205. The GI50 in the experiment on PC-3 was 14.8 µM (inactive).
On to `COc1ccc(C[C@@H](C(=O)NCC(N)=O)N(C)C(=O)[C@@H]2CCCN2C(=O)[C@H](CC(C)C)NC(=O)C(C)NC(=O)OCc2ccccc2)cc1` (stereo not given in full) (Cbz-[ξA]LP[NMeY](Me)G-NH2), for which the GI50 with HCT-116, in the experiment with MDA-MB-435, with SNB-75, with T47D, in the experiment on HOP-92 and in the experiment on NCI-H23 was > 100 µM (inactive) each time. Further, the GI50 in the experiment on NCI/ADR-RES, with RPMI-8226, in the experiment on LOX IMVI, in the experiment on MCF7, in the experiment with UACC-257 and in the experiment with SK-MEL-2 was > 100 µM (inactive) in each case. Moreover, the GI50 with HCC 2998, in the experiment on NCI-H522, in the experiment on HL-60, with EKVX, in the experiment on NCI-H460 and with COLO 205 was > 100 µM (inactive) in each case. Also, in the experiment with PC-3, the GI50 is > 100 µM (inactive).
